Source: ChEMBL document CHEMBL5543142, “Discovery of YFJ-36: Design, Synthesis, and Antibacterial Activities of Catechol-Conjugated β-Lactams against Gram-Negative Bacteria” (J Med Chem, 2024)

Legend:
[1] = test system: Escherichia coli; assay: Antibacterial activity against ESBL-producing multidrug-resistant Escherichia coli clinical isolate 14-4 assessed as inhibition of bacterial growth incubated for 18 to 20 hrs by two fold serial dilution assay; format: functional; details: time 18-20 hrs
[2] = test system: Escherichia coli; assay: Antibacterial activity against ESBL-producing multidrug-resistant Escherichia coli clinical isolate 14-2 assessed as inhibition of bacterial growth incubated for 18 to 20 hrs by two fold serial dilution assay; format: functional; details: time 18-20 hrs
[3] = test system: Klebsiella pneumoniae; assay: Antibacterial activity against KPC-2 producing multidrug-resistant Klebsiella pneumoniae clinical isolate 15-1 assessed as inhibition of bacterial growth incubated for 18 to 20 hrs by two fold serial dilution assay; format: functional; details: time 18-20 hrs
[4] = target: hERG (KCNH2) (Homo sapiens, UniProt Q12809); assay: Inhibition of hERG at 40 uM by whole cell Qpatch assay relative to control; format: toxicity
Chain of hERG (KCNH2) (Q12809 whole entry): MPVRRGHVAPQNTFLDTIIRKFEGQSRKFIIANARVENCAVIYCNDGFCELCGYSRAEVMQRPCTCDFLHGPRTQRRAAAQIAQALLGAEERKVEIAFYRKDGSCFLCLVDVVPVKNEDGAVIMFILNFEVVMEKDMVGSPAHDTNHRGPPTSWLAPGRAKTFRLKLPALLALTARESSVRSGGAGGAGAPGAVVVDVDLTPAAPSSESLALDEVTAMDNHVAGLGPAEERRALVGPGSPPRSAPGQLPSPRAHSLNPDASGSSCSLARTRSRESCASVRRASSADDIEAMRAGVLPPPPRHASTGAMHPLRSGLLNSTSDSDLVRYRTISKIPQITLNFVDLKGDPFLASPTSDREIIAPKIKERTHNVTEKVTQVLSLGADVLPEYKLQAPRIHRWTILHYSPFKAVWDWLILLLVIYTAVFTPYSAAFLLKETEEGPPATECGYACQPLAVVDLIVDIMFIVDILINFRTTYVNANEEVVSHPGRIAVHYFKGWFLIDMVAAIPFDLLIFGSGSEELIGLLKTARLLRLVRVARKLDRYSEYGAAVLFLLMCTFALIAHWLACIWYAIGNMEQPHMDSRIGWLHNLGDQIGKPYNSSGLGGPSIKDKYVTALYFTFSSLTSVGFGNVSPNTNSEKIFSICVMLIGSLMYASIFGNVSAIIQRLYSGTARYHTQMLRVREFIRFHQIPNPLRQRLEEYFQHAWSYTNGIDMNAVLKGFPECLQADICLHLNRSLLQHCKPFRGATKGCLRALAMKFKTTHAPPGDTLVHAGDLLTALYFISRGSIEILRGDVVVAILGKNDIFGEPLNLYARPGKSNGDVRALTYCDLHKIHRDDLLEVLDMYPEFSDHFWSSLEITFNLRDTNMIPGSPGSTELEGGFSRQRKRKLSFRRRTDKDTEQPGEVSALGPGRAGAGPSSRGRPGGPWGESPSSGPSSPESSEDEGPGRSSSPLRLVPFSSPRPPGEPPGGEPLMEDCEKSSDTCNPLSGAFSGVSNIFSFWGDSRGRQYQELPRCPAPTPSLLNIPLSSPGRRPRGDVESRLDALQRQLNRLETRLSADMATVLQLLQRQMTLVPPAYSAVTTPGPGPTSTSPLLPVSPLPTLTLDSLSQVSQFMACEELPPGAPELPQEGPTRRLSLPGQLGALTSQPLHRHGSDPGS

[5] = AUC (0 to infinity) in ICR mouse at 20 mg/kg,iv administration measured upto 6 hrs by LC-MS/MS analysis; format: ADME, organism-based; details: in vivo
[6] = target: Voltage-gated inwardly rectifying potassium channel KCNH2 (Homo sapiens, UniProt Q12809); assay: Inhibition of hERG by whole cell Qpatch assay; format: toxicity
Chain of Voltage-gated inwardly rectifying potassium channel KCNH2 (Q12809 whole entry): as above

[7] = Volume of distribution at steady state in ICR mouse at 20 mg/kg,iv administration measured upto 6 hrs by LC-MS/MS analysis; format: ADME, organism-based; details: in vivo, read-out: Vdss
[8] = test system: Pseudomonas aeruginosa; assay: Antibacterial activity against IMP-4 producing multidrug-resistant Pseudomonas aeruginosa clinical isolate 17-1 assessed as inhibition of bacterial growth incubated for 18 to 20 hrs by two fold serial dilution assay; format: functional; details: time 18-20 hrs
[9] = test system: Escherichia coli; assay: Antibacterial activity against Escherichia coli ATCC-35218 assessed as inhibition of bacterial growth incubated for 18 to 20 hrs in presence of iron-depleted CAMHB medium by two fold serial dilution assay; format: functional; details: time 18-20 hrs
[10] = MRT in ICR mouse at 20 mg/kg,iv administration measured upto 6 hrs by LC-MS/MS analysis; format: ADME, organism-based; details: in vivo
[11] = test system: Acinetobacter baumannii; assay: Antibacterial activity against OXA-23 producing multidrug-resistant Acinetobacter baumannii clinical isolate 15-2 assessed as inhibition of bacterial growth incubated for 18 to 20 hrs by two fold serial dilution assay; format: functional; details: time 18-20 hrs
[12] = test system: Acinetobacter baumannii; assay: Antibacterial activity against OXA-23 producing multidrug-resistant Acinetobacter baumannii clinical isolate 15-5 assessed as inhibition of bacterial growth incubated for 18 to 20 hrs by two fold serial dilution assay; format: functional; details: time 18-20 hrs
[13] = test system: Acinetobacter baumannii; assay: Antibacterial activity against OXA-23 producing multidrug-resistant Acinetobacter baumannii clinical isolate 15-3 assessed as inhibition of bacterial growth incubated for 18 to 20 hrs by two fold serial dilution assay; format: functional; details: time 18-20 hrs
[14] = test system: Klebsiella pneumoniae; assay: Antibacterial activity against KPC-2 producing multidrug-resistant Klebsiella pneumoniae clinical isolate 15-2 assessed as inhibition of bacterial growth incubated for 18 to 20 hrs by two fold serial dilution assay; format: functional; details: time 18-20 hrs
[15] = test system: Escherichia coli; assay: Antibacterial activity against Escherichia coli ATCC-35218 assessed as inhibition of bacterial growth incubated for 18 to 20 hrs in presence of CAMHB medium by two fold serial dilution assay; format: functional; details: time 18-20 hrs
[16] = test system: Klebsiella pneumoniae; assay: Antibacterial activity against KPC-2 producing multidrug-resistant Klebsiella pneumoniae clinical isolate 15-5 assessed as inhibition of bacterial growth incubated for 18 to 20 hrs by two fold serial dilution assay; format: functional; details: time 18-20 hrs
[17] = test system: Acinetobacter baumannii; assay: Antibacterial activity against OXA-23 producing multidrug-resistant Acinetobacter baumannii clinical isolate 15-1 assessed as inhibition of bacterial growth incubated for 18 to 20 hrs by two fold serial dilution assay; format: functional; details: time 18-20 hrs
[18] = test system: Escherichia coli; assay: Antibacterial activity against ESBL-producing multidrug-resistant Escherichia coli clinical isolate 14-1 assessed as inhibition of bacterial growth incubated for 18 to 20 hrs by two fold serial dilution assay; format: functional; details: time 18-20 hrs
[19] = Clearance in ICR mouse at 20 mg/kg,iv administration measured upto 6 hrs by LC-MS/MS analysis; format: ADME, organism-based; details: in vivo
[20] = test system: Pseudomonas aeruginosa; assay: Antibacterial activity against IMP-4 producing multidrug-resistant Pseudomonas aeruginosa clinical isolate 19-17 assessed as inhibition of bacterial growth incubated for 18 to 20 hrs by two fold serial dilution assay; format: functional; details: time 18-20 hrs
[21] = test system: Pseudomonas aeruginosa; assay: Antibacterial activity against IMP-4 producing multidrug-resistant Pseudomonas aeruginosa clinical isolate 17-13 assessed as inhibition of bacterial growth incubated for 18 to 20 hrs by two fold serial dilution assay; format: functional; details: time 18-20 hrs
[22] = test system: Escherichia coli; assay: Antibacterial activity against Escherichia coli ATCC35218 assessed as inhibition of bacterial growth incubated for 18 to 20 hrs by two fold serial dilution assay; format: functional; details: time 18-20 hrs
[23] = Half life in ICR mouse at 20 mg/kg,iv administration measured upto 6 hrs by LC-MS/MS analysis; format: ADME, organism-based; details: in vivo
[24] = test system: Escherichia coli; assay: Antibacterial activity against Escherichia coli NCTC-13353 assessed as inhibition of bacterial growth incubated for 18 to 20 hrs in presence of iron-depleted CAMHB medium by two fold serial dilution assay; format: functional; details: time 18-20 hrs
[25] = test system: Escherichia coli; assay: Antibacterial activity against Escherichia coli NCTC-13353 assessed as inhibition of bacterial growth incubated for 18 to 20 hrs in presence of CAMHB medium by two fold serial dilution assay; format: functional; details: time 18-20 hrs
[26] = test system: Klebsiella pneumoniae; assay: Antibacterial activity against Klebsiella pneumoniae ATCC BAA-1898 assessed as inhibition of bacterial growth incubated for 18 to 20 hrs in presence of CAMHB medium by two fold serial dilution assay; format: functional; details: time 18-20 hrs
[27] = test system: Klebsiella pneumoniae; assay: Antibacterial activity against Klebsiella pneumoniae ATCC BAA-1898 assessed as inhibition of bacterial growth incubated for 18 to 20 hrs in presence of iron-depleted CAMHB medium by two fold serial dilution assay; format: functional; details: time 18-20 hrs
[28] = test system: Klebsiella pneumoniae; assay: Antibacterial activity against KPC-2 producing multidrug-resistant Klebsiella pneumoniae clinical isolate 15-3 assessed as inhibition of bacterial growth incubated for 18 to 20 hrs by two fold serial dilution assay; format: functional; details: time 18-20 hrs
[29] = test system: Acinetobacter baumannii; assay: Antibacterial activity against OXA-23 producing multidrug-resistant Acinetobacter baumannii clinical isolate 15-4 assessed as inhibition of bacterial growth incubated for 18 to 20 hrs by two fold serial dilution assay; format: functional; details: time 18-20 hrs

Nc1nc(/C(=N/OC(C(=O)O)C2CCC(F)(F)CC2)C(=O)N[C@@H]2C(=O)N3C(C(=O)O)=C(CSCCNC(=O)c4ccc(O)c(O)c4Cl)CS[C@H]23)cs1.O=C(O)C(F)(F)F (some centres undefined)
MIC [1]: 0.125 µg/mL | MIC [2]: 0.5 µg/mL | MIC [3]: 2 µg/mL | inhibition at 40 µM [4]: 16.8% | AUC(0-inf) [5]: 10400 ng·h/mL | IC50 [6]: > 40 µM | Vd [7]: 1.59 L/kg | MIC [8]: 4 µg/mL | MIC [9]: 0.25 µg/mL | MRT [10]: 0.76 h | MIC [11]: 2 µg/mL | MIC [12]: 2 µg/mL | MIC [13]: 4 µg/mL | MIC [14]: 0.5 µg/mL | MIC [15]: 2 µg/mL | MIC [16]: 0.25 µg/mL | MIC [17]: 4 µg/mL | MIC [18]: 0.5 µg/mL | clearance [19]: 33.9 mL/min/kg | MIC [20]: 1 µg/mL | MIC [21]: 0.25 µg/mL | MIC [22]: ≤ 0.03 µg/mL | half-life [23]: 3.14 h | MIC [24]: 0.5 µg/mL | MIC [25]: 0.5 µg/mL | MIC [26]: 8 µg/mL | MIC [27]: 2 µg/mL | MIC [28]: 1 µg/mL | MIC [29]: 4 µg/mL
